Where “and” joins values, the source holds several entries; their conditions need not be identical. Equal values may be shown once. Read-outs that look alike come from different tables or passages of the source.

The nature of series [1]: Apparent pH of solvent systems before API addition and of saturated supernatant. The format is physicochemical.
Series [2] can be described thus: Compatibility / immiscibility of bases and trolamine levels in solvent systems. The format is physicochemical.
Series [3] in a line: physchem.
Where [4] appears, read: SSCR01 with 3.50% w/w of the named base, before API addition.
Where [5] appears, read: SSCR01 with 3.50% w/w of the named base, saturated with ruxolitinib phosphate.
The mark [6] stands for this setting: SSNA01 with 3.50% w/w of the named base, before API addition.
Where [7] appears, read: SSNA01 with 3.50% w/w of the named base, saturated with ruxolitinib phosphate.
Setting [8] is: SSAG01 with 3.50% w/w of the named base, before API addition.
Setting [9] is: SSAG01 with 3.50% w/w of the named base, saturated with ruxolitinib phosphate.

For `CCC(N)(CO)CO` [2-Amino-2-ethyl-1,3-propanediol], the “Vehicle pH” value was 10.38 in series [1] (setting [4]) and 10.27 in series [1] (setting [6]). Further, the “Supernatant pH” value stood at 3.29 in series [1] (setting [5]) and 4.99 in series [1] (setting [7]). In series [2] (SSAG01), the “Compatibility of base with solvent system” value (“Compatibility of base” below) is “Incompatible”. For the same compound, the “compatibility of the base with the solvent system” value (shortened to “compatibility of the base”) in series [2] (SSAG01) is given as “incompatible”.
For `NC(CO)(CO)CO` [Tris], the “Vehicle pH” value in series [1] (setting [4]) is given as 10.08. The “Supernatant pH” value in series [1] (setting [5]) amounted to 3.45. For the same compound, in series [2] (SSAG01), the “Compatibility of base” value is listed as “Incompatible” and the “compatibility of the base” value is “not compatible”. For the same compound, in series [2] (SSNA01), the “Compatibility of base” value is listed as “Incompatible” and the “compatibility of the base” value is “incompatible”.
With `CC(C)(N)CO` [2-Amino-2-methyl-1-propanol], the “Vehicle pH” value in series [1] (setting [8]) is 12.17; in series [1] (setting [4]), 11.44; in series [1] (setting [6]), 10.45. The “Supernatant pH” value in series [1] (setting [9]) is listed as 4.34; in series [1] (setting [5]) it was 3.61; in series [1] (setting [7]), 4.98.
Turning to `OCCNCCO` [Diethanolamine], in series [1] (setting [4]), the “Vehicle pH” value turned out to be 10.88. Moreover, in series [1] (setting [6]), the “Vehicle pH” value was determined as 10.30. For the same compound, in series [2] (SSAG01), the “Compatibility of base” value was “Incompatible” and the “compatibility of the base” value is listed as “incompatible”.
As to Ethanolamine, in series [1], the “Supernatant pH” value is 6.65 and 6.55 and 5.33; the “Vehicle pH” value is 10.27 and 12.25 and 11.52; the “apparent pH of SSCR01 following API addition with the named base” value was determined as 5.33; the “apparent pH of SSNA01 following API addition with the named base” value was “ca. 6.6”.
`CC(O)CNCC(C)O` (centres unmarked) [Diisopropanolamine]: the “apparent pH of SSAG01 following API addition with the named base” value in series [1] (SSAG01, after ruxolitinib phosphate addition) came out at 4.29. In addition, the “Vehicle pH” value in series [1] (setting [8]) was determined as 11.31; in series [1] (setting [4]), 10.63; in series [1] (setting [6]), 9.89. In addition, the “Supernatant pH” value in series [1] (setting [9]) came to 4.29; in series [1] (setting [5]), 3.49; in series [1] (setting [7]), 6.51.
As usually defined, the solubility is the dissolved amount per volume that the medium holds. For the compound `N#CC[C@H](C1CCCC1)n1cc(-c2ncnc3[nH]ccc23)cn1` [Ruxolitinib phosphate, ruxolitinib phosphate], the solubility at 24 h in series [3] came to 11.3 mg/mL.
Take `CC(C)NC(C)C` [Diisopropylamine]: in series [1], the “Supernatant pH” value was 4.80 and 4.53; the “Vehicle pH” value was 10.62 and 12.57. Further, in series [2] (SSCR01), the “Compatibility of base” value was “Incompatible” and the “compatibility of the base” value was “incompatible”.

The record behind these values is US20260199359A1 (INCYTE CORPORATION, priority 2021, published 2026).
